The text below walks through data of ChEMBL document CHEMBL1145434, “Optimization of novel combi-molecules: identification of balanced and mixed bcr-abl/DNA targeting properties” (Bioorg Med Chem Lett, 2007).

The source made the active and inactive calls. The rule behind the calls is not given here.

One test deals with K562. Description: cells. The conditions noted are these: Homo sapiens.
For test [1], the target named is Tyrosine-protein kinase ABL1 (Homo sapiens, UniProt P00519).
The species entered for another test is Homo sapiens. Description: Effect on DNA damage in p210 transfected M07 cells. In kind it is functional, cell-based.

Sequence of Tyrosine-protein kinase ABL1 (P00519 whole entry): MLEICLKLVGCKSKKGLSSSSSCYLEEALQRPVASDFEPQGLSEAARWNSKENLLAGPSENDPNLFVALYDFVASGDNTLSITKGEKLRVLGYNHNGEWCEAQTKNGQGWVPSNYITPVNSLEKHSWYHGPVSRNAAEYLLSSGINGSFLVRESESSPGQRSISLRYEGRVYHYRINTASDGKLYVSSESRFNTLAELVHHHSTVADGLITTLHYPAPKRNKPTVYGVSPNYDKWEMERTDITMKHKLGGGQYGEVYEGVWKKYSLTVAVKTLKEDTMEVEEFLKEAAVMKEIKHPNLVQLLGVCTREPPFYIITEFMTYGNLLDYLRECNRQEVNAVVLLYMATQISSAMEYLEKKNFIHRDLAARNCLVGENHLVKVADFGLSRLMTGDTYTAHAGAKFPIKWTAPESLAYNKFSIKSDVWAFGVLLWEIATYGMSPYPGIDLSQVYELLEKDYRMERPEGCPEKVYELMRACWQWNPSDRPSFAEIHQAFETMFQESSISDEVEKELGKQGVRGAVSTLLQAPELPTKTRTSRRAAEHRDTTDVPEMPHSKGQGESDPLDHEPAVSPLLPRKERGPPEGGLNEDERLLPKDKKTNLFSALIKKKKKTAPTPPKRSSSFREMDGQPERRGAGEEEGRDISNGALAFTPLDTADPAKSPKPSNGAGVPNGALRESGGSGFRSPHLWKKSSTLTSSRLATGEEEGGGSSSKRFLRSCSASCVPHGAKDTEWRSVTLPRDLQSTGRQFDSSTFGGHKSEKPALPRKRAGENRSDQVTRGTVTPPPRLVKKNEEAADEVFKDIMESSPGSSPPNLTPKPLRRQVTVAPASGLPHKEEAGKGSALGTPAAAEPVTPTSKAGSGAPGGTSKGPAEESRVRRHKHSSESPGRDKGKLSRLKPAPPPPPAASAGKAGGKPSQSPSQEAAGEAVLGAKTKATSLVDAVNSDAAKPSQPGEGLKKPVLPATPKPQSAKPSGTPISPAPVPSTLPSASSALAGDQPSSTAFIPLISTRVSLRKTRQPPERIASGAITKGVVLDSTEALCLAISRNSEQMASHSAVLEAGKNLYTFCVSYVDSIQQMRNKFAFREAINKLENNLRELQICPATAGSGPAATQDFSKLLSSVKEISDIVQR
Description for K562: Cytotoxicity against K562 cells by MTT assay

For orientation: IC50 means the concentration that gives 50% inhibition. High values mean weaker potency, low ones greater potency. `Cc1ccc(NC(=O)c2ccc(N=NN(C)C)c(C(F)(F)F)c2)cc1Nc1nccc(-c2cccnc2)n1`: the IC50 in the test with K562 is 52 nM.

Compound `Cc1ccc(NC(=O)c2ccc(N)cc2)cc1Nc1nccc(-c2cccnc2)n1` gave an IC50 in test [1] greater than 10000 nM.

Compound `Cc1ccc(NC(=O)c2ccc(N=NN(C)CO)c(C(F)(F)F)c2)cc1Nc1nccc(-c2cccnc2)n1` gave an IC50 with K562 of 187 nM. In other words, the sub-micromolar range.

Regarding `Cc1ccc(NC(=O)c2ccc(N)c(C(F)(F)F)c2)cc1Nc1nccc(-c2cccnc2)n1`, the IC50 in the test on K562 was found to be 316 nM. Compared with the last compound, the IC50 is about 1.7-fold higher.

`CNN=Nc1ccc(C(=O)Nc2ccc(C)c(Nc3nccc(-c4cccnc4)n3)c2)cc1C(F)(F)F`: the result in the test listed under Homo sapiens was Active. This compound returned a concentration for half-maximal inhibition (IC50) with K562 of 113 nM.

In the test with K562, `CNN=Nc1ccc(C(=O)Nc2ccc(C)c(Nc3nccc(-c4cccnc4)n3)c2)cc1Cl` showed a concentration for half-maximal inhibition (IC50) of 9980 nM.

For `Cc1ccc(NC(=O)c2ccc(N(CCCl)CCCl)cc2)cc1Nc1nccc(-c2cccnc2)n1`, the IC50 was determined as 220 nM in test [1] and 2460 nM in the test with K562.

As to `Cc1ccc(NC(=O)c2ccc(CN(CCCl)CCCl)cc2)cc1Nc1nccc(-c2cccnc2)n1`, the values for the concentration for half-maximal inhibition (IC50) (in test [1]; in the test on K562) were greater than 10000 nM and greater than 100000 nM, respectively.

`Cc1ccc(NC(=O)c2ccc(CN(C)CCCl)cc2)cc1Nc1nccc(-c2cccnc2)n1` registered an IC50 in the test with K562 of 79700 nM.
